Patent US9162975B2, “Phenyl carbamate compounds for use in alleviating or treating pain” (Bio-Pharm Solutions Co., Ltd., priority 2011, dated 2015)

Tests used:
[1] = test system: vincristine-induced pain model in rats; test: Antiallodynic activity on vincristine-induced pain model, von Frey; assay type: in vivo, Sprague-Dawley rats; settings: 0.5 hr, paw withdrawal threshold relative to sham
Procedure: Male, Sprague-Dawley rats (300-320 g, Nara Bio, Korea) were habituated for 1 week before surgery and allowed free access to food and water throughout the experimentation. Room temperature and humidity were maintained at 24±2° C. and 50±10%, respectively.
Vincristine was established by the procedure of Natsuko et al. (2001) with minor modifications. Vincristine was intravenously infused continuously for 14 days using a mini-osmotic pump as follows. Vincristine sulfate solution (Hospira, Australia) was diluted with 0.9% saline to 30 ug/kg, final dose. The pumps (Alzet Model 2002, USA) were filled with the vincristine solution and primed by incubation at 37° C. for 4 h before the infusion. Briefly, animal under gaseous anesthesia with isoflurane a 4:4 flow ratio of NO2. […]
(§1) Tactile sensitivity (Mechanical allodynia) was evaluated using von Frey monofilaments before and after treatment, and animals were used withdrawal threshold value was less than 4 g. […] The tactile sensitivity for ipsilateral hind paw was measured using the up-and-down method (Dixon, 1980) with seven von Frey monofilaments (0.4, 1, 2, 4, 6, 8, and 15 g) to 3 trials. […] The 50% paw withdrawal threshold for each paw was calculated using the following formula: [Xth] log=[vFr] log+ky where [vFr] is the force of the last von Frey used, k=0.2249 which is the average interval (in log units) between the von Frey monofilaments, and y is a value that depends upon the pattern of withdrawal responses (Dixon, 1980).
Antiallodynic effect of compound of Example 1 was evaluated at the dose of 1, 5 and 10 mg/kg (n=6), intraperitoneally administrated in a volume of 5 ul/g, bw in a vehicle of 30% (v/v) PEG. […]
The relative values compared to the sham (% control) were calculated and shown in Table 6 and FIG. 6, which show an antiallodynic effect of Compound 1 on vincristine-induced pain model in rats.

[2] = test system: STZ-induced pain model in rats; test: Antiallodynic activity on streptozotocin (STZ)-induced diabetic pain model, von Frey; assay type: in vivo, Sprague-Dawley rats; settings: 0.5 hr, paw withdrawal threshold relative to sham
Procedure: Male, Sprague-Dawley rats (200-220 g, Nara Bio, Korea) were habituated for 1 week before surgery and allowed free access to food and water throughout the experimentation. Room temperature and humidity were maintained at 24±2° C. and 50±10%, respectively.
STZ-induced diabetic pain model was established with a modified method of Rakieten et al. (1963) and Bertrand Aubel et al. (2004). All animals were fasted 4 to 6 hr prior to STZ injection. STZ (sigma, USA) was dissolved in 20 mM sodium citrate buffer, pH 5.5 (sigma, USA) and intraperitoneally injected at 75 mg/kg, 4 ul/g, bw into the rats Sham controls were injected with same volume of 20 mM sodium citrate buffer, pH 5.5 and vehicle controls were identical to STZ model, except for administration of vehicles. Rats were supplied with 10% sucrose water for 2 days against sudden hypoglycemia. 3 days later, the induction of diabetes was checked by measurement of tail vein blood glucose levels with a blood glucose meter. (LifeScan OneTouch Ultra, USA). If blood glucose was not >300 mg/dl by 72 hr, the rat was excluded from the diabetic group.
as §1, with “treatment of compound example 1” for “treatment,”
Antiallodynic effect of compound of Example 1 was evaluated at the dose of 10, 30 and 60 mg/kg (n=6), intraperitoneally administrated in a volume of 5 ul/g, bw in a vehicle of 30% (v/v) PEG. […]

[3] = dose 10 mg/kg intraperitoneally

Question: Which results are given for C[C@H](OC(N)=O)[C@@H](O)c1ccccc1Cl [Example 1, 1-(2-chlorophenyl)-(S)-1-hydroxypropyl-(S)-2-carbamate]?
Answer: % Control (vincristine-induced pain model) ([1]; dose 1 mg/kg intraperitoneally): 20.7%; % Control (vincristine-induced pain model) ([1]; dose 5 mg/kg intraperitoneally): 63.1%; % Control (vincristine-induced pain model) [1, 3]: 71.7%; % Control (STZ-induced pain model) [2, 3]: 33.9%; % Control (STZ-induced pain model) ([2]; dose 30 mg/kg intraperitoneally): 49.9%; % Control (STZ-induced pain model) ([2]; dose 60 mg/kg intraperitoneally): 73.7%
